{"source": "paper PMC5114172", "about": "(Journal of applied toxicology : JAT, 2016)", "experiment_in_all_cases": "Cell viability, trypan blue exclusion", "type_in_all_cases": "cell-based, human", "key": {"monocyte-depleted PBMCs": {"tested_on": "monocyte-depleted PBMCs", "details": "for Percent Viable Cells / decrease in viability: MD-PBMCs"}, "PBMCs with Granulocytes": {"tested_on": "PBMCs with Granulocytes", "details": "for Percent Viable Cells: PBMCs with Granulocytes"}, "NK cells": {"tested_on": "NK cells"}}}
{"smiles": "CCC[CH2][Sn][CH2]CCC", "note": "[DBT, Dibutyltin]", "values": [{"measurement": "average decrease in viability", "setting": "monocyte-depleted PBMCs; MD-PBMC, 24 h, 5 μM DBT", "result": 15, "unit": "%"}, {"measurement": "Percent Viable Cells", "setting": "monocyte-depleted PBMCs; 24 h, 0.05 μM DBT", "result": "98±2", "unit": "%"}, {"measurement": "Percent Viable Cells", "setting": "monocyte-depleted PBMCs; 24 h, 0.1 μM DBT", "result": "98±1", "unit": "%"}, {"measurement": "Percent Viable Cells", "setting": "monocyte-depleted PBMCs; 24 h, 0.25 μM DBT", "result": "97±1", "unit": "%"}, {"measurement": "Percent Viable Cells", "setting": "monocyte-depleted PBMCs; 24 h, 0.5 μM DBT", "result": "91±8", "unit": "%"}, {"measurement": "Percent Viable Cells", "setting": "monocyte-depleted PBMCs; 24 h, 1 μM DBT", "result": "92±4", "unit": "%"}, {"measurement": "Percent Viable Cells", "setting": "monocyte-depleted PBMCs; 24 h, 2.5 μM DBT", "result": "74±15", "unit": "%"}, {"measurement": "Percent Viable Cells", "setting": "monocyte-depleted PBMCs; 24 h, 5 μM DBT", "result": "80±9", "unit": "%"}, {"measurement": "decrease in viability", "setting": "monocyte-depleted PBMCs; 24 h, 2.5 and 5 μM DBT", "result": 15, "unit": "%"}, {"measurement": "Percent Viable Cells", "setting": "monocyte-depleted PBMCs; 48 h, 0.05 μM DBT", "result": "96±2", "unit": "%"}, {"measurement": "Percent Viable Cells", "setting": "monocyte-depleted PBMCs; 48 h, 0.1 μM DBT", "result": "97±1", "unit": "%"}, {"measurement": "Percent Viable Cells", "setting": "monocyte-depleted PBMCs; 48 h, 0.25 μM DBT", "result": "96±2", "unit": "%"}, {"measurement": "Percent Viable Cells", "setting": "monocyte-depleted PBMCs; 48 h, 0.5 μM DBT", "result": "94±3", "unit": "%"}, {"measurement": "Percent Viable Cells", "setting": "monocyte-depleted PBMCs; 48 h, 1 μM DBT", "result": "80±11", "unit": "%"}, {"measurement": "Percent Viable Cells", "setting": "monocyte-depleted PBMCs; 48 h, 2.5 μM DBT", "result": "56±20", "unit": "%"}, {"measurement": "decrease in viability", "setting": "monocyte-depleted PBMCs; 48 h, 2.5 μM DBT", "result": 38, "unit": "%"}, {"measurement": "Percent Viable Cells", "setting": "monocyte-depleted PBMCs; 48 h, 5 μM DBT", "result": "55±10", "unit": "%"}, {"measurement": "decrease in viability", "setting": "monocyte-depleted PBMCs; 48 h, 5 μM DBT", "result": 35, "unit": "%"}, {"measurement": "Percent Viable Cells", "setting": "monocyte-depleted PBMCs; 6 day, 0.05 μM DBT", "result": "89±8", "unit": "%"}, {"measurement": "Percent Viable Cells", "setting": "monocyte-depleted PBMCs; 6 day, 0.1 μM DBT", "result": "86±7", "unit": "%"}, {"measurement": "Percent Viable Cells", "setting": "monocyte-depleted PBMCs; 6 day, 0.25 μM DBT", "result": "81±13", "unit": "%"}, {"measurement": "Percent Viable Cells", "setting": "monocyte-depleted PBMCs; 6 day, 0.5 μM DBT", "result": "67±13", "unit": "%"}, {"measurement": "Percent Viable Cells", "setting": "monocyte-depleted PBMCs; 6 day, 1 μM DBT", "result": "52±11", "unit": "%"}, {"measurement": "Percent Viable Cells", "setting": "monocyte-depleted PBMCs; 6 day, 2.5 μM DBT", "result": "47±9", "unit": "%"}, {"measurement": "Percent Viable Cells", "setting": "monocyte-depleted PBMCs; 6 day, 5 μM DBT", "result": "52±8", "unit": "%"}, {"measurement": "average decrease in viability", "setting": "PBMCs with Granulocytes; PBMC+granulocytes, 24 h, 5 μM DBT", "result": 16, "unit": "%"}, {"measurement": "Percent Viable Cells", "setting": "PBMCs with Granulocytes; 24 h, 0.05 μM DBT", "result": "94±3", "unit": "%"}, {"measurement": "Percent Viable Cells", "setting": "PBMCs with Granulocytes; 24 h, 0.1 μM DBT", "result": "93±6", "unit": "%"}, {"measurement": "Percent Viable Cells", "setting": "PBMCs with Granulocytes; 24 h, 0.25 μM DBT", "result": "93±4", "unit": "%"}, {"measurement": "Percent Viable Cells", "setting": "PBMCs with Granulocytes; 24 h, 0.5 μM DBT", "result": "94±5", "unit": "%"}, {"measurement": "Percent Viable Cells", "setting": "PBMCs with Granulocytes; 24 h, 1 μM DBT", "result": "88±6", "unit": "%"}, {"measurement": "Percent Viable Cells", "setting": "PBMCs with Granulocytes; 24 h, 2.5 μM DBT", "result": "84±8", "unit": "%"}, {"measurement": "Percent Viable Cells", "setting": "PBMCs with Granulocytes; 24 h, 5 μM DBT", "result": "77±4", "unit": "%"}, {"measurement": "Percent Viable Cells", "setting": "PBMCs with Granulocytes; 48 h, 0.05 μM DBT", "result": "93±5", "unit": "%"}, {"measurement": "Percent Viable Cells", "setting": "PBMCs with Granulocytes; 48 h, 0.1 μM DBT", "result": "94±2", "unit": "%"}, {"measurement": "Percent Viable Cells", "setting": "PBMCs with Granulocytes; 48 h, 0.25 μM DBT", "result": "93±5", "unit": "%"}, {"measurement": "Percent Viable Cells", "setting": "PBMCs with Granulocytes; 48 h, 0.5 μM DBT", "result": "92±2", "unit": "%"}, {"measurement": "Percent Viable Cells", "setting": "PBMCs with Granulocytes; 48 h, 1 μM DBT", "result": "88±10", "unit": "%"}, {"measurement": "Percent Viable Cells", "setting": "PBMCs with Granulocytes; 48 h, 2.5 μM DBT", "result": "50±29", "unit": "%"}, {"measurement": "Percent Viable Cells", "setting": "PBMCs with Granulocytes; 48 h, 5 μM DBT", "result": "49±12", "unit": "%"}, {"measurement": "Percent Viable Cells", "setting": "PBMCs with Granulocytes; 6 day, 0.05 μM DBT", "result": "80±7", "unit": "%"}, {"measurement": "Percent Viable Cells", "setting": "PBMCs with Granulocytes; 6 day, 0.1 μM DBT", "result": "72±10", "unit": "%"}, {"measurement": "Percent Viable Cells", "setting": "PBMCs with Granulocytes; 6 day, 0.25 μM DBT", "result": "74±8", "unit": "%"}, {"measurement": "Percent Viable Cells", "setting": "PBMCs with Granulocytes; 6 day, 0.5 μM DBT", "result": "54±10", "unit": "%"}, {"measurement": "Percent Viable Cells", "setting": "PBMCs with Granulocytes; 6 day, 1 μM DBT", "result": "50±12", "unit": "%"}, {"measurement": "Percent Viable Cells", "setting": "PBMCs with Granulocytes; 6 day, 2.5 μM DBT", "result": "32±15", "unit": "%"}, {"measurement": "Percent Viable Cells", "setting": "PBMCs with Granulocytes; 6 day, 5 μM DBT", "result": "37±10", "unit": "%"}, {"measurement": "effect on viability compared to the control", "setting": "PBMCs with Granulocytes; PBMCs+granulocytes, 24 h, 0.05–2.5 μM DBT", "result": "no effect"}, {"measurement": "Percent Viable Cells", "setting": "NK cells; 24 h, 0.05 μM DBT", "result": "97±3", "unit": "%"}, {"measurement": "Percent Viable Cells", "setting": "NK cells; 24 h, 0.1 μM DBT", "result": "98±2", "unit": "%"}, {"measurement": "Percent Viable Cells", "setting": "NK cells; 24 h, 0.25 μM DBT", "result": "98±1", "unit": "%"}, {"measurement": "Percent Viable Cells", "setting": "NK cells; 24 h, 0.5 μM DBT", "result": "95±4", "unit": "%"}, {"measurement": "Percent Viable Cells", "setting": "NK cells; 24 h, 1 μM DBT", "result": "92±5", "unit": "%"}, {"measurement": "Percent Viable Cells", "setting": "NK cells; 24 h, 2.5 μM DBT", "result": "88±1", "unit": "%"}, {"measurement": "Percent Viable Cells", "setting": "NK cells; 24 h, 5 μM DBT", "result": "80±7", "unit": "%"}, {"measurement": "average decrease in viability", "setting": "NK cells; 24 h, 5 μM DBT", "result": 13, "unit": "%"}, {"measurement": "effect on viability compared to the control", "setting": "NK cells; 24 h, 0.05–1 μM DBT", "result": "no effect"}, {"measurement": "decrease in NK cell viability", "setting": "NK cells; 24 h, 2.5 and 5 μM DBT", "result": "about 10%"}, {"measurement": "Percent Viable Cells", "setting": "NK cells; 48 h, 0.05 μM DBT", "result": "97±0", "unit": "%"}, {"measurement": "Percent Viable Cells", "setting": "NK cells; 48 h, 0.1 μM DBT", "result": "96±1", "unit": "%"}, {"measurement": "Percent Viable Cells", "setting": "NK cells; 48 h, 0.25 μM DBT", "result": "93±0", "unit": "%"}, {"measurement": "Percent Viable Cells", "setting": "NK cells; 48 h, 0.5 μM DBT", "result": "90±1", "unit": "%"}, {"measurement": "Percent Viable Cells", "setting": "NK cells; 48 h, 1 μM DBT", "result": "79±12", "unit": "%"}, {"measurement": "Percent Viable Cells", "setting": "NK cells; 48 h, 2.5 μM DBT", "result": "61±6", "unit": "%"}, {"measurement": "Percent Viable Cells", "setting": "NK cells; 48 h, 5 μM DBT", "result": "64±8", "unit": "%"}, {"measurement": "reductions in viability", "setting": "NK cells; 48 h, 2.5 and 5 μM DBT", "result": "around 35%"}, {"measurement": "Percent Viable Cells", "setting": "NK cells; 6 day, 0.05 μM DBT", "result": "75±8", "unit": "%"}, {"measurement": "Percent Viable Cells", "setting": "NK cells; 6 day, 0.1 μM DBT", "result": "78±7", "unit": "%"}, {"measurement": "Percent Viable Cells", "setting": "NK cells; 6 day, 0.25 μM DBT", "result": "74±9", "unit": "%"}]}
